“And” between values parts separate entries of the source, which are not always exact repeats. Identical values can stand only once. “Also recorded” adds a separate entry of the source. Like-named read-outs stand apart in the source and are kept apart here.
Experiments:
USP7-TRAF domain = molecular target: T1, USP7-TRAF domain (Homo sapiens, UniProt Q93009); assay: Surface plasmon resonance (SPR) analysis of peptide binding to USP7-TRAF
T1 construct: The TRAF domain of human and murine USP7 (1-208 aa) was subcloned into pGEX-6p-1; GST (N); made in house; host or cells: E. coli BL21 (DE3)
T1 sequence (Q93009 1-208): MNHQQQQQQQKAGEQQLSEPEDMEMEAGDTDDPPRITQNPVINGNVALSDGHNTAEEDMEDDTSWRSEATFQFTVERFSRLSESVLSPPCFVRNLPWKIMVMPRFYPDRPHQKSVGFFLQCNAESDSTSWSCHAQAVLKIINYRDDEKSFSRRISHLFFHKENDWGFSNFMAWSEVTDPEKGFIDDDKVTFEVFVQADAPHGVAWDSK

MHV68 in MLF cells = format: cell-based
RTA in HEK293T cells = format: cell-based, KSHV
[1] = test system: KSHV lytic reactivation in OTUD4- or USP7-knockdown SLK.iBAC-GFP cells; format: cell-based
[2] = test system: KSHV-RTA-WT lytic reactivation; format: cell-based
[3] = test system: KSHV lytic replication in SLK.iBAC-GFP cells transduced with vector control or OTUD4; format: cell-based; design: KSHV infectious units: unit not given here
[4] = test system: KSHV lytic gene expression in BCBL-1-Tet-K-RTA cells; format: cell-based
[5] = test system: interaction between murine USP7-TRAF and murine OTUD4; format: binding; conditions: GST pull-down
[6] = test system: interaction between OTUD4 and USP7-TRAF; assay: GST pull-down competition assay, human USP7-TRAF and FLAG-OTUD4; format: binding; conditions: 100 μM, 4 h
[7] = test system: KSHV genome replication in BCBL-1 cells; assay: Relative viral genomic copy number (latency) by qPCR in BCBL-1 cells; format: cell-based; conditions: 100 μM, 48 h
RTA in iSLK cells = format: cell-based, KSHV
[8] = test system: KSHV lytic gene expression in SLK.iBAC-GFP cells; format: cell-based
[9] = test system: interaction between USP7 and MDM2; format: cell-based
[10] = test system: OTUD4-USP7 interaction in FLAG-OTUD4-expressing SLK.iBAC-GFP cells; format: cell-based
[11] = test system: KSHV viral proteins in BCBL-1-Tet-K-RTA cells; format: cell-based; conditions: 100 μM
[12] = test system: interaction between USP7 and ICP0; format: cell-based
SLK.iBAC-GFP cells = format: cell-based; conditions: Fig. 1F, 100 μM, 48 h
Description: SLK.iBAC-GFP cells were seeded in a 96-well plate at a density of 1 × 10^5 cells/well. The cells were then treated with doxycycline (Dox, 1 μg/ml) and sodium butyrate (0.5 mM) to induce lytic reactivation in the presence of the indicated peptides (100 μM) for 48 h. After treatment and a 30-min equilibration at room temperature, CellTiter-Glo Reagent (Promega, G7570) was added in equal volumes to culture medium. Plates underwent orbital shaking (2 min) for lysis, followed by a 10-min incubation for signal stabilization and luminescence recording (0.25-1 sec integration).

[13] = test system: KSHV lytic replication in BCBL-1-Tet-K-RTA cells; format: cell-based
MHV68 in NIH3T3 cells = format: cell-based
[14] = test system: KSHV latent gene transcription in BCBL-1 cells; format: cell-based
[15] = test system: KSHV lytic reactivation in SLK.iBAC-GFP cells; format: cell-based
Description: (A) Graphical illustration showing the rationale underlying our peptide design. (B) Surface Plasmon Resonance (SPR) analysis assessing the interaction of the USP7-TRAF domain with the designed peptides p2 and p8. (C) SLK.iBAC-GFP cells were induced with doxycycline (Dox, 1 μg/mL) and sodium butyrate (0.5 mM) in the presence of the Tat fusion peptides (100 μM). All the peptides were fused to an N-terminal Tat47-57 peptide ([…]) via a flexible GG linker. The supernatants containing infectious virions were collected 48 h post-induction and used to infect HEK293T cells. KSHV infectious units were calculated based on the percentage of GFP-positive cells determined by flow cytometry. Data are mean ± s.d. of N = 3 independent biological replicates. (D) SLK.iBAC-GFP cells were induced with doxycycline (Dox, 1 μg/mL) and sodium butyrate (0.5 mM) in the presence of increasing amount of p8 (0, 10, 50, 100 μM). KSHV infectious units were determined 48 h post-induction. Data are mean ± s.d. of N = 3 independent biological replicates. […] Data are mean ± s.d. of N = 3 independent biological replicates. […] Cell viability was assessed by measuring ATP levels 48 h post-induction. Data are mean ± s.d. of N = 3 independent biological replicates.
Peptides p1 to p12 (S1A Fig) were synthesized by Sangon Biotech (Shanghai, China) with 95% purity. The Tat-fused peptides in Fig 1C consisted of the corresponding peptides conjugated to the Tat47-57 peptide ([…]) and two glycine linker residues (QYAOBIO, Suzhou, China). The peptides p8-DRI (nssqsasqnvpprrrqrrkkrGy) and p2-DRI (iesndedavepprrrqrrkkrGy) were synthesized using D-amino acids in a retro-reversed sequence with 95% purity (QYAOBIO, Suzhou, China). The peptide p8-m ([…]) was synthesized with 95% purity (QYAOBIO, Suzhou, China). All the peptides were acetylated at the N-terminus and amidated at the C-terminus to mimic the native peptide structure. The peptides were dissolved in PBS to prepare 1 mM stock solutions for in vitro experiments and 5 mg/ml stock solutions for in vivo experiments.
SLK.iBAC-GFP cells were treated with Dox (1 μg/ml) and sodium butyrate (0.5 mM) to induce lytic reactivation in the presence of indicated peptides (100 μM). The supernatants were collected at the specified time points and used to infect HEK293T cells at appropriate dilutions. The infected cells were collected, fixed, and analyzed by flow cytometry 24 h post-infection. FlowJo 10.0 software was used to analyze the data, and KSHV infectious units were quantified based on the percentage of GFP-positive cells.

[16] = test system: interaction between USP7 and p53; format: cell-based

Ac-YGRKKRRQRRRGGVNQSASQSSN-NH2 [p8] was tested, and the “Binding to the USP7-TRAF domain (in words)” value (USP7-TRAF domain) was “specifically bound to the USP7-TRAF domain”, the “Antiviral activity against MHV68 in MLF cells (in words)” value (MHV68 in MLF cells) was “potent antiviral activity against MHV68” and the “ORF9 viral gene expression” value (MHV68 in MLF cells) was 0.54 and 0.47 and 0.53. For the same substance, the “ORF25 viral gene expression” value (MHV68 in MLF cells) was 0.37 and 0.47 and 0.44, the “ORF50 viral gene expression” value (MHV68 in MLF cells) was 0.77 and 0.82 and 0.65 and the “Effect on OTUD4-enhanced RTA protein level (in words)” value (RTA in HEK293T cells) was “countered the promoting effect”. The “Antiviral effect in OTUD4-deficient or USP7-deficient cells (in words)” value [1] was “abolished”, the KSHV infectious units [2] was 1.8648 and 1.9224 and 1.6488 and the “Effect on OTUD4-promoted KSHV lytic replication (in words)” value [3] was “negated by p8”. For the same substance, the KSHV infectious units [3] was 6.7 and 4.8 and 4.4 and 5.5 and 6.5 and 6.3, the ORF25 gene expression [4] was 0.73 and 0.71 and the ORF26 gene expression [4] was 0.38 and 0.45 and 0.4. The ORF50 gene expression [4] was 0.4 and 0.44 and 0.49, the ORF56 gene expression [4] was 0.63 and 0.69 and 0.67 and the ORF57 gene expression [4] was 0.5 and 0.43 and 0.54. For the same substance, the “Transcription of KSHV lytic genes (in words)” value ([4]; 100 μM) was “decreased transcription of KSHV lytic genes”, the “Relative inhibitory activity on murine USP7-TRAF/murine OTUD4 interaction, p8 vs p8-m (in words)” value ([5]; 100 μM (S5E Fig)) was “slightly stronger inhibitory activity” and the “Disruption of murine USP7-TRAF/murine OTUD4 interaction (in words)” value ([5]; 100 μM, 4 h (S5E Fig)) was “effectively disrupted the interaction”. For the same substance, the “Disruption of OTUD4/USP7-TRAF interaction (in words)” value [6] was “effectively blocked the interaction between OTUD4 and USP7-TRAF”, the “KSHV genome replication in latency (in words)” value [7] was “did not affect KSHV latent gene transcription or genome replication” and the “RTA protein level in iSLK cells (in words)” value (RTA in iSLK cells) was “reduced the protein level of RTA”. For the same substance, the ORF25 gene expression [8] was 0.63 and 0.71 and 0.72, the ORF26 gene expression [8] was 0.64 and 0.65 and 0.71 and the ORF50 gene expression [8] was 0.69 and 0.8. The ORF56 gene expression [8] was 0.84 and 0.81 and 0.83, the ORF57 gene expression [8] was 0.74 and 0.75 and the “Transcription levels of ORF50, ORF56, ORF57, ORF25, ORF26 (in words)” value [8] was “decreased the transcription levels of multiple viral genes”. The “Effect on USP7-MDM2 interaction (in words)” value [9] was “did not affect the interactions”, the “Co-localization of OTUD4 and USP7 (in words)” value [10] was “disrupted the co-localization of OTUD4 and USP7” and the “Viral protein levels (in words)” value [11] was “lower levels of viral proteins”. For the same substance, the “Effect on USP7-ICP0 interaction (in words)” value [12] was “did not affect the interactions”, the “Cytotoxicity (in words)” value (SLK.iBAC-GFP cells) was “minimal cytotoxicity” and the “Cell viability (ATP levels)” value (SLK.iBAC-GFP cells; replicate 1) was 91.6982. For the same substance, the “Cell viability (ATP levels)” value (SLK.iBAC-GFP cells; replicate 2) was 88.8817, the “Cell viability (ATP levels)” value (SLK.iBAC-GFP cells; replicate 3) was 95.2836 and the “KSHV genome copies in supernatants” value [13] was 1.3 and 1.45 and 1.47. The “Progeny viral genomic copy number (in words)” value ([13]; 100 μM, 48 h) was “reduced progeny viral genomic copy number”, the “Antiviral activity against MHV68 in NIH3T3 cells (in words)” value (MHV68 in NIH3T3 cells) was “potent antiviral activity against MHV68” and the “ORF9 viral gene expression” value (MHV68 in NIH3T3 cells) was 0.25 and 0.26. The “ORF25 viral gene expression” value (MHV68 in NIH3T3 cells) was 0.28 and 0.26, the “ORF50 viral gene expression” value (MHV68 in NIH3T3 cells) was 0.24 and 0.22 and 0.27 and the “ORF71 mRNA expression” value [14] was 1.01 and 1.03. For the same substance, the “ORF72 mRNA expression” value [14] was 1.27 and 1.18 and 1.09, the “ORF73 mRNA expression” value [14] was 0.87 and 0.86 and 0.96 and the “KSHV latent gene transcription (in words)” value ([14]; 100 μM, 48 h) was “did not affect KSHV latent gene transcription”. For the same substance, the “KSHV progeny virion production (in words)” value ([15]; S2E Fig, 100 μM) was “significantly reduced KSHV progeny virion production”, the “Inhibition of KSHV lytic reactivation (in words)” value ([15]; Tat-fused peptides, 100 μM or dose series, 48 h post-induction) was “effectively inhibited KSHV lytic reactivation in a dose-dependent manner; also recorded: efficiently suppressed KSHV lytic reactivation” and the “Effect on USP7-p53 interaction (in words)” value [16] was “did not affect the interactions”.

— PMC12047801, “Disrupting the OTUD4-USP7 deubiquitinase complex to suppress herpesvirus replication: a novel antiviral strategy” (PLOS Pathogens, 2025)
